Test results: ChEMBL document CHEMBL3885861, “Open TG-GATES”

Species: Rattus norvegicus
Test: Open TG-GATES - Regimen: Single
Format: toxicity, organism-based, Sprague-Dawley
Parameters: regimen Single, gender Male, age 6 weeks
Settings: in vivo, iv, 60 mg/kg, route intravenous injection, dose level High; for APTT / Bas / Eos / Fbg / Hb / Ht / Lym / MCH / MCHC / MCV / Mono / Neu / PT / Plat / RBC / Ret / WBC: tissue Blood; for KIDNEY_L / KIDNEY_R / KIDNEY_TOTAL: tissue Kidney; for LIVER: tissue Liver; for A/G / ALP / ALT / AST / BUN / CRE / Ca / Cl / DBIL / GLC / IP / K / LDH / Na / PL / RALB / TBIL / TC / TG / TP / gamma-GTP: tissue Plasma

NCCBr [BROMOETHANAMINE]
TERMINAL_BW (3 h): 212.4 g
APTT (3 h): 23.5 s
Bas (3 h): 0%
Eos (3 h): 0.6%
Fbg (3 h): 312.8 mg/dL
Hb (3 h): 14.4 g/dL
Ht (3 h): 41.9%
Lym (3 h): 70.8%
MCH (3 h): 21.8 pg
MCHC (3 h): 34.5%
MCV (3 h): 63.3 fL
Mono (3 h): 2.4%
Neu (3 h): 25.4%
PT (3 h): 16.1 s
Plat (3 h): 131.5 x10_4/uL
RBC (3 h): 661.2 x10_4/ul
Ret (3 h): 6%
WBC (3 h): 39.6 x10_2/uL
KIDNEY_L (3 h): 0.9 g
KIDNEY_R (3 h): 1 g
KIDNEY_TOTAL (3 h): 1.9 g
LIVER (3 h): 9.3 g
A/G (3 h): 1.2
ALP (3 h): 1494.4 IU/L
ALT (3 h): 47 IU/L
AST (3 h): 56.8 IU/L
BUN (3 h): 13.4 mg/dL
CRE (3 h): 0.1 mg/dL
Ca (3 h): 10.7 mg/dL
Cl (3 h): 106.8 meq/L
DBIL (3 h): 0.002 mg/dL
GLC (3 h): 166.2 mg/dL
IP (3 h): 10.5 mg/dL
K (3 h): 4.1 meq/L
LDH (3 h): 321.8 IU/L
Na (3 h): 143.4 meq/L
PL (3 h): 141 mg/dL
RALB (3 h): 3.1 g/dL
TBIL (3 h): 0.014 mg/dL
TC (3 h): 85.4 mg/dL
TG (3 h): 46.4 mg/dL
TP (3 h): 5.9 g/dL
gamma-GTP (3 h): 1 IU/L
TERMINAL_BW (6 h): 208.7 g
APTT (6 h): 23.1 s
Bas (6 h): 0%
Eos (6 h): 0.6%
Fbg (6 h): 325.6 mg/dL
Hb (6 h): 14.2 g/dL
Ht (6 h): 40.9%
Lym (6 h): 74.2%
MCH (6 h): 20.9 pg
MCHC (6 h): 34.8%
MCV (6 h): 60.1 fL
Mono (6 h): 1.6%
Neu (6 h): 23.2%
PT (6 h): 16.1 s
Plat (6 h): 136 x10_4/uL
RBC (6 h): 681 x10_4/ul
Ret (6 h): 5.4%
WBC (6 h): 35.9 x10_2/uL
KIDNEY_L (6 h): 1 g
KIDNEY_R (6 h): 1 g
KIDNEY_TOTAL (6 h): 2 g
LIVER (6 h): 9.1 g
A/G (6 h): 1.2
ALP (6 h): 1401.4 IU/L
ALT (6 h): 39.2 IU/L
AST (6 h): 54.2 IU/L
BUN (6 h): 15.6 mg/dL
CRE (6 h): 0.1 mg/dL
Ca (6 h): 10.6 mg/dL
Cl (6 h): 101.4 meq/L
DBIL (6 h): 0.004 mg/dL
GLC (6 h): 201 mg/dL
IP (6 h): 10.2 mg/dL
K (6 h): 4 meq/L
LDH (6 h): 362.4 IU/L
Na (6 h): 142 meq/L
PL (6 h): 133 mg/dL
RALB (6 h): 3.2 g/dL
TBIL (6 h): 0.01 mg/dL
TC (6 h): 80.8 mg/dL
TG (6 h): 27.6 mg/dL
TP (6 h): 6 g/dL
gamma-GTP (6 h): 1.2 IU/L
TERMINAL_BW (9 h): 202.6 g
APTT (9 h): 24.1 s
Bas (9 h): 0%
Eos (9 h): 0.2%
Fbg (9 h): 341.6 mg/dL
Hb (9 h): 14.9 g/dL
Ht (9 h): 42.6%
Lym (9 h): 71%
MCH (9 h): 21.5 pg
MCHC (9 h): 35%
MCV (9 h): 61.4 fL
Mono (9 h): 3.2%
Neu (9 h): 24.2%
PT (9 h): 15.8 s
Plat (9 h): 135.3 x10_4/uL
RBC (9 h): 695 x10_4/ul
Ret (9 h): 5.2%
WBC (9 h): 40.1 x10_2/uL
KIDNEY_L (9 h): 1 g
KIDNEY_R (9 h): 1 g
KIDNEY_TOTAL (9 h): 2 g
LIVER (9 h): 8.8 g
A/G (9 h): 1.2
ALP (9 h): 1484.2 IU/L
ALT (9 h): 34.4 IU/L
AST (9 h): 49.6 IU/L
BUN (9 h): 19.8 mg/dL
CRE (9 h): 0.2 mg/dL
Ca (9 h): 10.7 mg/dL
Cl (9 h): 101.4 meq/L
DBIL (9 h): 0 mg/dL
GLC (9 h): 223.8 mg/dL
IP (9 h): 9.1 mg/dL
K (9 h): 3.6 meq/L
LDH (9 h): 316.2 IU/L
Na (9 h): 142 meq/L
PL (9 h): 154.6 mg/dL
RALB (9 h): 3.4 g/dL
TBIL (9 h): 0.016 mg/dL
TC (9 h): 86.8 mg/dL
TG (9 h): 84.2 mg/dL
TP (9 h): 6.2 g/dL
gamma-GTP (9 h): 1.4 IU/L
TERMINAL_BW (24 h): 206.5 g
APTT (24 h): 24.1 s
Bas (24 h): 0%
Eos (24 h): 0.6%
Fbg (24 h): 354.4 mg/dL
Hb (24 h): 14.6 g/dL
Ht (24 h): 42.3%
Lym (24 h): 81.6%
MCH (24 h): 21 pg
MCHC (24 h): 34.6%
MCV (24 h): 60.9 fL
Mono (24 h): 2.6%
Neu (24 h): 13.8%
PT (24 h): 16.1 s
Plat (24 h): 130.9 x10_4/uL
RBC (24 h): 695 x10_4/ul
Ret (24 h): 4%
WBC (24 h): 90.8 x10_2/uL
KIDNEY_L (24 h): 1 g
KIDNEY_R (24 h): 1 g
KIDNEY_TOTAL (24 h): 1.9 g
LIVER (24 h): 8.1 g
A/G (24 h): 1.2
ALP (24 h): 1421.6 IU/L
ALT (24 h): 35.4 IU/L
AST (24 h): 61.4 IU/L
BUN (24 h): 18.4 mg/dL
CRE (24 h): 0.2 mg/dL
Ca (24 h): 10.7 mg/dL
Cl (24 h): 109.4 meq/L
DBIL (24 h): 0.004 mg/dL
GLC (24 h): 174 mg/dL
IP (24 h): 7.9 mg/dL
K (24 h): 4.2 meq/L
LDH (24 h): 278.8 IU/L
Na (24 h): 142.8 meq/L
PL (24 h): 141.4 mg/dL
RALB (24 h): 3.1 g/dL
TBIL (24 h): 0.028 mg/dL
TC (24 h): 91.4 mg/dL
TG (24 h): 36.4 mg/dL
TP (24 h): 5.8 g/dL
gamma-GTP (24 h): 1.6 IU/L
